Test results from ChEMBL document CHEMBL3885861, “Open TG-GATES”.

Organism: Rattus norvegicus
Experiment: Open TG-GATES - Regimen: Daily Repeat
Assay type: toxicity, organism-based, Sprague-Dawley
Design: regimen Daily Repeat, gender Male, age 6 weeks
Conditions: in vivo, po, route gavage; for APTT / Bas / Eos / Fbg / Hb / Ht / Lym / MCH / MCHC / MCV / Mono / Neu / PT / Plat / RBC / Ret / WBC: tissue Blood; for KIDNEY_L / KIDNEY_R / KIDNEY_TOTAL: tissue Kidney; for LIVER: tissue Liver; for A/G / ALP / ALT / AST / BUN / CRE / Ca / Cl / DBIL / GLC / IP / K / LDH / Na / PL / RALB / TBIL / TC / TG / TP / gamma-GTP: tissue Plasma
[1] = 0 mg/kg, 72 h, dose level Control, time 3 day
[2] = 0 mg/kg, […], dose level Control, time 7 day
[3] = 0 mg/kg, […], dose level Control, time 14 day
[4] = 0 mg/kg, […], dose level Control, time 28 day
[5] = 15 mg/kg, 72 h, dose level Low, time 3 day
[6] = 15 mg/kg, […], dose level Low, time 7 day
[7] = 15 mg/kg, […], dose level Low, time 14 day
[8] = 15 mg/kg, […], dose level Low, time 28 day

## CN(C)CCC=C1c2ccccc2CCc2ccccc21 [AMITRIPTYLINE]
[1]
  TERMINAL_BW: 226.6 g
  APTT: 14.9 s
  Bas: 0%
  Eos: 1.2%
  Fbg: 287.4 mg/dL
  Hb: 13 g/dL
  Ht: 39.9%
  Lym: 71.4%
  MCH: 21.3 pg
  MCHC: 32.7%
  MCV: 65.1 fL
  Mono: 3.4%
  Neu: 23.4%
  PT: 15.5 s
  Plat: 116.7 x10_4/uL
  RBC: 613.4 x10_4/ul
  Ret: 7.7%
  WBC: 71.8 x10_2/uL
  KIDNEY_L: 0.9 g
  KIDNEY_R: 0.9 g
  KIDNEY_TOTAL: 1.8 g
  LIVER: 10.7 g
  A/G: 0.8
  ALP: 1976.4 IU/L
  ALT: 54.6 IU/L
  AST: 74.2 IU/L
  BUN: 16.4 mg/dL
  CRE: 0.2 mg/dL
  Ca: 11.2 mg/dL
  Cl: 105.6 meq/L
  DBIL: 0.02 mg/dL
  GLC: 179.4 mg/dL
  IP: 7.9 mg/dL
  K: 4.1 meq/L
  LDH: 81 IU/L
  Na: 143.8 meq/L
  PL: 162.2 mg/dL
  RALB: 2.7 g/dL
  TBIL: 0.054 mg/dL
  TC: 83.2 mg/dL
  TG: 121.8 mg/dL
  TP: 5.9 g/dL
  gamma-GTP: 0.6 IU/L
[2]
  TERMINAL_BW: 259.7 g
  APTT: 16.5 s
  Bas: 0.6%
  Eos: 1%
  Fbg: 302.6 mg/dL
  Hb: 13.5 g/dL
  Ht: 40.7%
  Lym: 78.8%
  MCH: 20.8 pg
  MCHC: 33.1%
  MCV: 62.8 fL
  Mono: 2.8%
  Neu: 16.4%
  PT: 15.2 s
  Plat: 109.9 x10_4/uL
  RBC: 648.8 x10_4/ul
  Ret: 5.7%
  WBC: 86.3 x10_2/uL
  KIDNEY_L: 1 g
  KIDNEY_R: 1 g
  KIDNEY_TOTAL: 2 g
  LIVER: 11.9 g
  A/G: 0.8
  ALP: 1482.8 IU/L
  ALT: 40.8 IU/L
  AST: 64.2 IU/L
  BUN: 16 mg/dL
  CRE: 0.2 mg/dL
  Ca: 10.9 mg/dL
  Cl: 106.4 meq/L
  DBIL: 0.014 mg/dL
  GLC: 185.8 mg/dL
  IP: 7.5 mg/dL
  K: 3.9 meq/L
  LDH: 56.4 IU/L
  Na: 143.8 meq/L
  PL: 165.8 mg/dL
  RALB: 2.6 g/dL
  TBIL: 0.052 mg/dL
  TC: 81.2 mg/dL
  TG: 131.2 mg/dL
  TP: 5.8 g/dL
  gamma-GTP: 0.6 IU/L
[3]
  TERMINAL_BW: 318.6 g
  APTT: 17.3 s
  Bas: 0%
  Eos: 1%
  Fbg: 294.4 mg/dL
  Hb: 13.8 g/dL
  Ht: 41.5%
  Lym: 76.8%
  MCH: 20.9 pg
  MCHC: 33.3%
  MCV: 62.5 fL
  Mono: 2.2%
  Neu: 19%
  PT: 15.6 s
  Plat: 127.9 x10_4/uL
  RBC: 664.4 x10_4/ul
  Ret: 4.7%
  WBC: 94.5 x10_2/uL
  KIDNEY_L: 1.2 g
  KIDNEY_R: 1.2 g
  KIDNEY_TOTAL: 2.5 g
  LIVER: 14 g
  A/G: 0.8
  ALP: 1703.4 IU/L
  ALT: 41.8 IU/L
  AST: 68.6 IU/L
  BUN: 17.6 mg/dL
  CRE: 0.2 mg/dL
  Ca: 10.9 mg/dL
  Cl: 106 meq/L
  DBIL: 0.024 mg/dL
  GLC: 191.8 mg/dL
  IP: 6.3 mg/dL
  K: 4.3 meq/L
  LDH: 70.8 IU/L
  Na: 142.4 meq/L
  PL: 157 mg/dL
  RALB: 2.7 g/dL
  TBIL: 0.046 mg/dL
  TC: 71.6 mg/dL
  TG: 128.8 mg/dL
  TP: 6.1 g/dL
  gamma-GTP: 0.4 IU/L
[4]
  TERMINAL_BW: 406.1 g
  APTT: 18.5 s
  Bas: 0.2%
  Eos: 1%
  Fbg: 253 mg/dL
  Hb: 14.9 g/dL
  Ht: 43.8%
  Lym: 77.2%
  MCH: 19.6 pg
  MCHC: 33.9%
  MCV: 57.7 fL
  Mono: 2.6%
  Neu: 18.2%
  PT: 16.2 s
  Plat: 104.1 x10_4/uL
  RBC: 760.8 x10_4/ul
  Ret: 2.5%
  WBC: 120.5 x10_2/uL
  KIDNEY_L: 1.4 g
  KIDNEY_R: 1.4 g
  KIDNEY_TOTAL: 2.8 g
  LIVER: 17 g
  A/G: 0.8
  ALP: 1151.8 IU/L
  ALT: 47.2 IU/L
  AST: 83 IU/L
  BUN: 17.6 mg/dL
  CRE: 0.2 mg/dL
  Ca: 10.5 mg/dL
  Cl: 104.8 meq/L
  DBIL: 0.02 mg/dL
  GLC: 198.6 mg/dL
  IP: 6.3 mg/dL
  K: 3.7 meq/L
  LDH: 116.2 IU/L
  Na: 143 meq/L
  PL: 138 mg/dL
  RALB: 2.8 g/dL
  TBIL: 0.058 mg/dL
  TC: 62 mg/dL
  TG: 134.8 mg/dL
  TP: 6.2 g/dL
  gamma-GTP: 0.4 IU/L
[5]
  TERMINAL_BW: 224.1 g
  APTT: 16 s
  Bas: 0%
  Eos: 1%
  Fbg: 268.6 mg/dL
  Hb: 13.1 g/dL
  Ht: 40%
  Lym: 76.8%
  MCH: 20.3 pg
  MCHC: 32.7%
  MCV: 62 fL
  Mono: 3%
  Neu: 18.2%
  PT: 16 s
  Plat: 118.8 x10_4/uL
  RBC: 645.4 x10_4/ul
  Ret: 7.3%
  WBC: 97.8 x10_2/uL
  KIDNEY_L: 0.9 g
  KIDNEY_R: 0.9 g
  KIDNEY_TOTAL: 1.8 g
  LIVER: 10.4 g
  A/G: 0.8
  ALP: 1844.8 IU/L
  ALT: 55.8 IU/L
  AST: 74.6 IU/L
  BUN: 14.2 mg/dL
  CRE: 0.2 mg/dL
  Ca: 11 mg/dL
  Cl: 105.6 meq/L
  DBIL: 0.022 mg/dL
  GLC: 185.2 mg/dL
  IP: 7.7 mg/dL
  K: 4 meq/L
  LDH: 74.6 IU/L
  Na: 143.6 meq/L
  PL: 150.2 mg/dL
  RALB: 2.7 g/dL
  TBIL: 0.06 mg/dL
  TC: 76.2 mg/dL
  TG: 106 mg/dL
  TP: 5.8 g/dL
  gamma-GTP: 0.8 IU/L
[6]
  TERMINAL_BW: 265.9 g
  APTT: 15.5 s
  Bas: 0%
  Eos: 1.2%
  Fbg: 292 mg/dL
  Hb: 13.6 g/dL
  Ht: 41.4%
  Lym: 79.6%
  MCH: 20.6 pg
  MCHC: 32.7%
  MCV: 62.8 fL
  Mono: 3%
  Neu: 15.6%
  PT: 15.1 s
  Plat: 116.5 x10_4/uL
  RBC: 659 x10_4/ul
  Ret: 6.3%
  WBC: 93.6 x10_2/uL
  KIDNEY_L: 1.1 g
  KIDNEY_R: 1.1 g
  KIDNEY_TOTAL: 2.1 g
  LIVER: 12.7 g
  A/G: 0.8
  ALP: 1784.2 IU/L
  ALT: 44.8 IU/L
  AST: 70.6 IU/L
  BUN: 18.4 mg/dL
  CRE: 0.2 mg/dL
  Ca: 10.9 mg/dL
  Cl: 105.6 meq/L
  DBIL: 0.018 mg/dL
  GLC: 187.6 mg/dL
  IP: 7.7 mg/dL
  K: 4.1 meq/L
  LDH: 85.8 IU/L
  Na: 143.8 meq/L
  PL: 163.8 mg/dL
  RALB: 2.7 g/dL
  TBIL: 0.046 mg/dL
  TC: 78 mg/dL
  TG: 126 mg/dL
  TP: 5.9 g/dL
  gamma-GTP: 0.8 IU/L
[7]
  TERMINAL_BW: 314.4 g
  APTT: 17.3 s
  Bas: 0.4%
  Eos: 1%
  Fbg: 289.6 mg/dL
  Hb: 14 g/dL
  Ht: 42.2%
  Lym: 76%
  MCH: 20 pg
  MCHC: 33.2%
  MCV: 60.3 fL
  Mono: 2.2%
  Neu: 20%
  PT: 16 s
  Plat: 118.1 x10_4/uL
  RBC: 698.6 x10_4/ul
  Ret: 4.4%
  WBC: 115.2 x10_2/uL
  KIDNEY_L: 1.2 g
  KIDNEY_R: 1.2 g
  KIDNEY_TOTAL: 2.4 g
  LIVER: 13.8 g
  A/G: 0.8
  ALP: 1397.6 IU/L
  ALT: 44 IU/L
  AST: 69 IU/L
  BUN: 16.8 mg/dL
  CRE: 0.2 mg/dL
  Ca: 10.9 mg/dL
  Cl: 105.8 meq/L
  DBIL: 0.018 mg/dL
  GLC: 196 mg/dL
  IP: 6.8 mg/dL
  K: 4 meq/L
  LDH: 65 IU/L
  Na: 142.8 meq/L
  PL: 154 mg/dL
  RALB: 2.7 g/dL
  TBIL: 0.05 mg/dL
  TC: 70 mg/dL
  TG: 156.2 mg/dL
  TP: 6.1 g/dL
  gamma-GTP: 0.4 IU/L
[8]
  TERMINAL_BW: 400.5 g
  APTT: 21.5 s
  Bas: 0.2%
  Eos: 1.4%
  Fbg: 286.6 mg/dL
  Hb: 15.5 g/dL
  Ht: 45.4%
  Lym: 81.4%
  MCH: 19.3 pg
  MCHC: 34.1%
  MCV: 56.6 fL
  Mono: 2%
  Neu: 14.2%
  PT: 16.1 s
  Plat: 97.5 x10_4/uL
  RBC: 802.8 x10_4/ul
  Ret: 2.5%
  WBC: 104.9 x10_2/uL
  KIDNEY_L: 1.4 g
  KIDNEY_R: 1.4 g
  KIDNEY_TOTAL: 2.8 g
  LIVER: 16.1 g
  A/G: 0.8
  ALP: 1354.6 IU/L
  ALT: 36 IU/L
  AST: 61.2 IU/L
  BUN: 17.6 mg/dL
  CRE: 0.2 mg/dL
  Ca: 10.6 mg/dL
  Cl: 103.8 meq/L
  DBIL: 0.018 mg/dL
  GLC: 180.6 mg/dL
  IP: 6.2 mg/dL
  K: 3.8 meq/L
  LDH: 55.4 IU/L
  Na: 142.8 meq/L
  PL: 156.2 mg/dL
  RALB: 2.8 g/dL
  TBIL: 0.056 mg/dL
  TC: 77 mg/dL
  TG: 130.4 mg/dL
  TP: 6.3 g/dL
  gamma-GTP: 0 IU/L
